# Assay results taken from patent US7202093B2, “Method for labeling phosphorylated peptides, method for selectively adsorbing phosphorylated peptides, complex compounds used in the methods, process for producing the complex compounds, and raw material compounds for the complex compounds” (Kabushiki Kaisha Nard Kenkyusho, priority 2003, dated 2007).
# No end group written: not given here.
# Assays:
# Type in all cases: binding
# [1] = molecular target: T1, Streptavidin agarose (Streptomyces avidinii, UniProt P22629); assay: Same fractionation on Streptavidin agarose without the inventive complex compound (Comparative Example 1); settings: inventive complex compound not included; for isolation/recovery rate of the peptide, fraction 7: step as fraction 1 (sample filtrate, Tris-acetate pH 7.4); for isolation/recovery rate of the peptide, fraction 8: step as fraction 2 (Tris-acetate, 0.50M NaNO3, first); for isolation/recovery rate of the peptide, fraction 9: step as fraction 3 (Tris-acetate, 0.50M NaNO3, second); for isolation/recovery rate of the peptide, fraction 10: step as fraction 4 (Tris-acetate, 0.50M NaNO3, third); for isolation/recovery rate of the peptide, fraction 11: step as fraction 5 (phosphate buffer, first); for isolation/recovery rate of the peptide, fraction 12: step as fraction 6 (phosphate buffer, second)
# T1 construct: purchased Sigma-Aldrich Co
# T1 sequence (P22629 25-183): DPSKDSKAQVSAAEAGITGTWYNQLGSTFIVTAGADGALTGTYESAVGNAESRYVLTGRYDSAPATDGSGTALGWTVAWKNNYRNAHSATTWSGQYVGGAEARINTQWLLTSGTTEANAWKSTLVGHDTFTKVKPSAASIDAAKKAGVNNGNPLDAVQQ
# Description: (§1) Analyzing conditions according to HPLC: • column: Capcell Pak C18 type UG80, 4.6 mm (diameter)×150 mm • mobile phase: acetonitrile:water=14:86(v/v), 0.1%(v/v) of trifluoroacetic acid • flow rate: 1 mL/min. • column temperature: 40° C. • detecting method: UV 266 nm • retention time: P-p60c (5.3 min.). p60c (13.4 min.)
# The suspension (0.3 mL) containing Streptavidin agarose (quantity of the bonded moiety of biotin; 60 to 120 nmol/mL) and a buffer (Sigma-Aldrich Co.) was charged in a centrifugal filter unit (volume: 0.5 mL, filter pore diameter: 0.22 μm). The filter unit was subjected to centrifugal separation at 2,000×g for 15 seconds, followed by filtration of the suspension. Then, 5.0 mM Tris-acetate buffer (pH=7.4, 0.30 mL) was charged in the filter unit, and the filter unit was subjected to centrifugal separation at 2,000×g for 15 seconds and filtration for washing. This centrifugal separation and filtration step for washing was cyclically repeated for 5 times.
# A process similar to the process in Experiment Example 2 was conducted with use of samples equivalent to the samples used in Experimental Example 2, using a filter unit (in this Comparative Example, the inventive complex compound was not included). Thus, fractions 7 through 12 were obtained.
# HPLC analysis was conducted with respect to the fractions 7 through 12 in a similar manner as Experimental Example 2.
# [2] = system: inventive complex compound (compound of Production Example 3-1 + zinc acetate) bonded to Streptavidin agarose; assay: Selective adsorption of peptides on Streptavidin agarose carrying the inventive zinc complex, fractions quantified by HPLC (Experimental Example 2); settings: for isolation/recovery rate of the peptide to the total amount, fraction 1: filtrate of sample in 5.0 mM Tris-acetate buffer pH 7.4; for isolation/recovery rate of the peptide to the total amount, fraction 1 / isolation/recovery rate of the peptide to the total amount, fraction 5 / isolation/recovery rate of the peptide to the total amount, fraction 2 / isolation/recovery rate of the peptide to the total amount, fraction 6 / isolation/recovery rate of the peptide to the total amount, fraction 3 / isolation/recovery rate of the peptide to the total amount, fraction 4: agarose with zinc complex of Production Example 3-1; for isolation/recovery rate of the peptide to the total amount, fraction 5: first filtration with 1.0 mM phosphoric acid-sodium hydroxide buffer pH 7.4, 0.50M NaNO3; for isolation/recovery rate of the peptide to the total amount, fraction 2: first filtration with 5.0 mM Tris-acetate buffer pH 7.4, 0.50M NaNO3; for isolation/recovery rate of the peptide to the total amount, fraction 6: second filtration with 1.0 mM phosphoric acid-sodium hydroxide buffer pH 7.4, 0.50M NaNO3; for isolation/recovery rate of the peptide to the total amount, fraction 3: second filtration with 5.0 mM Tris-acetate buffer pH 7.4, 0.50M NaNO3; for isolation/recovery rate of the peptide to the total amount, fraction 4: third filtration with 5.0 mM Tris-acetate buffer pH 7.4, 0.50M NaNO3
# Description: The suspension (0.3 mL) containing Streptavidin agarose (quantity of the bonded moiety of biotin: 60 to 120 nmol/mL) and a buffer (Sigma-Aldrich Co.) was charged in a centrifugal filter unit (volume: 0.5 mL filter pore diameter: 0.22 μm). The filter unit was subjected to centrifugal separation at centrifugal acceleration of 2,000×g for 15 seconds, followed by filtration of the suspension. 5.0 mM Tris-acetate buffer (pH=7.4, 0.30 mL) was charged in the filter unit, then the filter unit was subjected to centrifugal separation at 2,000×g for 15 seconds and filtration for washing. This centrifugal separation and filtration step for washing was cyclically repeated for 5 times.
# To the filter unit, charged was 5.0 mM Tris-acetate buffer (pH=7.4, 0.30 mL) dissolving 120 nmol/mL of the compound obtained in Production Example 3-1 and 500 nmol/mL of zinc acetate. The filter unit was brought to an equilibrium state for 5 minutes, and then, subjected to centrifugal separation at 2,000×g for 15 seconds and filtration. Next, 5.0 mM Tris-acetate buffer (pH=7.4, 0.30 mL) was charged in the filter unit, and subjected to centrifugal separation at 2,000×g for 15 seconds and filtration for washing. This centrifugal separation and filtration step for washing was cyclically repeated for 5 times. Further, 5.0 mM Tris-acetate buffer (pH=7.4, 0.30 mL) dissolving 10 nmol/mL of zinc acetate was charged in the filter unit, and subjected to centrifugal separation at 2,000×g for 15 seconds and filtration for washing. This centrifugal separation and filtration step for washing was cyclically repeated for 5 times.
# To the filter unit, charged was 5.0 mM Tris-acetate buffer (pH=7.4, 0.30 mL) dissolving non-phosphorylated peptide p60c (p60c-src peptide 521–533, 14 nmol/mL) and phosphorylated peptide P-p60c (O-phosphoryl p60c-src peptide 521–533, 12 nmol/mL), as samples. The filter unit was brought to an equilibrium state for 5 minutes, and then, subjected to centrifugal separation at 2,000×g for 15 seconds and filtration. The obtained filtrate was taken out as a fraction 1.
# Next, 5.0 mM Tris-acetate buffer (pH=7.4, 0.50M NaNO3, 0.30 mL) was charged in the filter unit, and the filter unit was subjected to centrifugal separation at 2,000×g for 15 seconds and filtration for 3 times. The filtrate obtained after the first filtration was taken out as a fraction 2, the filtrate after the second filtration was taken out as a fraction 3, and the filtrate after the third filtration was taken out as a fraction 4.
# Furthermore, 1.0 mM buffer containing phosphoric acid-sodium hydroxide (pH=7.4, 0.50M NaNO3, 0.30 mL) was charged in the filter unit, and the filter unit was subjected to centrifugal separation at 2,000×g for 15 seconds and filtration for 2 times. The filtrate obtained after the first filtration was taken out as a fraction 5, and the filtrate after the second filtration was taken out as a fraction 6.
# The contents of the peptide in the respective fractions 1 through 6 were quantitatively determined by high performance liquid chromatography (HPLC).
# as §1
# [3] = system: α-casein (phosphorylated), β-casein (phosphorylated), pepsin (phosphorylated); assay: 10% native-polyacrylamide gel electrophoresis, gel stained and imaged by fluoro image analyzer (Experimental Example 3); settings: ten protein samples
# Description: First, prepared were gels for electrophoresis, pH buffer for electrophoresis, and a coloring solution for dissolving samples under the same condition as in Experimental Example 1.
# Next, 2 μg each of 1: Bovine Serum Albumin, 2: Human Serum Albumin, 3: carbonic anhydrase, 4: β-galactosidase, 5: α-casein (phosphorylated), 6: α-casein (de-phosphorylated), 7: β-casein (phosphorylated), 8: β-casein (de-phosphorylated), 9: pepsin (phosphorylated), and 10: pepsin (de-phosphorylated) was dissolved in the coloring solution to prepare samples. The respective samples were plotted on the gel. Then, a constant electric current of 40 mA was applied until the coloring marker was flowed.
# The obtained gel was immersed in a 10 mM Tris-acetate buffer (pH=7.4) containing 1 μM of N,N,N′-tri(2-pyridylmethyl)-N′-[5-N″-(2-N-5-fluoresceinylthioureidoethyl)carbamoyl-2-pyridylmethyl]-1,3-diamopropane-2-ol obtained in Production Example 8-1 and 100 μM zinc acetate for 30 minutes. Thereafter, the gel was taken out from the solution. This gel was washed with 100 mL of 10 mM Tris-acetate buffer (pH=7.4) for 10 minutes twice. Thereafter, a fluorescent image of the gel was photographed by using a fluoro image analyzer FLA-5000 (Fuji Photo Film Co., Ltd.) at an excitation wavelength of 473 nm with use of a fluorescence detecting filter of 510 nm. […]
Compound,"isolation/recovery rate of the peptide, fraction 7 [1] [%]","isolation/recovery rate of the peptide, fraction 8 [1] [%]","isolation/recovery rate of the peptide, fraction 9 [1] [%]","isolation/recovery rate of the peptide, fraction 10 [1] [%]","isolation/recovery rate of the peptide, fraction 11 [1] [%]","isolation/recovery rate of the peptide, fraction 12 [1] [%]","isolation/recovery rate of the peptide to the total amount, fraction 1 [2] [%]","isolation/recovery rate of the peptide to the total amount, fraction 5 [2] [%]","isolation/recovery rate of the peptide to the total amount, fraction 2 [2] [%]","isolation/recovery rate of the peptide to the total amount, fraction 6 [2] [%]","isolation/recovery rate of the peptide to the total amount, fraction 3 [2] [%]","isolation/recovery rate of the peptide to the total amount, fraction 4 [2] [%]","dyeing of proteins in the gel by the conventional dyeing process ([3]; same gel, FIG. 9 gel B)","selective adsorption of phosphorylated peptide ([2]; mixed sample of P-p60c and p60c, complex formed with zinc acetate, bonded to Streptavidin agarose)","identification (fluorescent labeling) of proteins in the gel ([3]; 1 μM compound + 100 μM zinc acetate, 10 mM Tris-acetate pH 7.4, 30 minutes, excitation 473 nm, FIG. 9 gel A)"
"P-p60c: phosphorylated peptide P-p60c (O-phosphoryl p60c-src peptide 521–533) (DYFTSTEPQYQPG; also: O-phosphotyrosine, position not given here; UniProt P12931 521-533, looked up, fragment)",83,17,0,0,0,0,0,83,0,17,0,0,,,
Coomassie brilliant blue,,,,,,,,,,,,,all the peptides were dyed,,
"p60c: non-phosphorylated peptide p60c (p60c-src peptide 521–533) (DYFTSTEPQYQPG; UniProt P12931 521-533, looked up, fragment)",75,20,5,0,0,0,67,0,24,0,9,0,,,
"N,N,N′-Tri(2-pyridylmethyl)-N′-[5-N″-2-(6-D-biotinamidohexacarboxyamidoethyl)carbamoyl-2-pyridylmethyl]-1,3-diaminopropane-2-ol [Production Example 3-1]",,,,,,,,,,,,,,can adsorb selectively a phosphorylated peptide,
"O=C(NCCNC(=S)Nc1ccc(-c2c3ccc(=O)cc-3oc3cc(O)ccc23)c(C(=O)O)c1)c1ccc(CN(Cc2ccccn2)CC(O)CN(Cc2ccccn2)Cc2ccccn2)nc1 (stereo not drawn) [Production Example 8-1, N,N,N′-Tri(2-pyridylmethyl)-N′-[5-N″-(2-N-5-fluoresceinylthioureidoethyl)carbamoyl-2-pyridylmethyl]-1,3-diaminopropane-2-ol]",,,,,,,,,,,,,,,"only 5: α-casein (phosphorylated), 7: β-casein (phosphorylated) and 9: pepsin (phosphorylated) to all of which the phosphoric acid has been bonded were identified exclusively"
